Consider three molecules from US5608095A, “Alkyl-4-silyl-phenols and esters thereof as antiatherosclerotic agents” (Hoechst Marion Roussel, Inc., priority 1996, dated 1997).

For data set [1], the system named is serum cholesterol, LDL, HDL, triglycerides. The data set is described as follows: Serum lipids and lipoprotein cholesterol in cholesterol-fed female New Zealand White rabbits. Format: in vivo. The conditions noted are these: Oryctolagus cuniculus, po, rabbit serum; for response vs control in vivo at 0.4 %: 168 h, diet 0.4%, 7 days; for response vs control in vivo at 0.6 %: 336 h, diet 0.6%, 14 days. Put shortly:
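Female New Zealand White rabbits fed 0.2% cholesterol chow sprayed with 0.4% compound (some at 0.26% or 0.6%) for 7 days (0.6% arm, 14 days). Fasted serum: total cholesterol and triglycerides enzymatically (mg/dL); VLDL/LDL/HDL separated by Sepharose 6HR gel-filtration HPLC, post-column cholesterol reagent at 37 °C, A500.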

Data set [2] deals with oxidation of serum lipids. In words: TBARS assay, rat serum. Format: in vivo, male Sprague-Dawley rats. The conditions noted are these: po, 96 h, rat serum, 4 days, read-out: TBARS, percent of control; for response vs control in vivo at 0.1 %: diet 0.1%; for response vs control in vivo at 0.3 %: diet 0.3%. Summed up: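 Male Sprague-Dawley rats (50–100 g) were fed compound as a 0.3% or 0.1% dietary admixture for 4 days, and serum was taken from non-fasted rats on day 5. Serum was oxidised with 5 mmol CuSO4 solution at 37 °C for 3 h, then reacted with TBA at 90 °C for 30 min. A540 was converted to nmol MDA by standard curve and compared against untreated-rat serum.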

A short description of data set [3]: HPLC quantitation of compound and metabolite concentration in rat serum and liver. It counts as in vivo, male Sprague-Dawley rats. The conditions noted are these: 4 days; for concentration at 96 h: po. Summed up: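 Male Sprague-Dawley rats (50–100 g, n=5) fed compound as 0.3% or 0.1% dietary admixture for 4 days; serum and liver taken day 5. Ether:ethanol extracts analysed by reverse-phase C18 HPLC at 240, 254, 420 nm for parent, bisphenol and diphenoquinone; recovery-corrected, μg/mL serum, μg/g liver.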

The mark [4] stands for this setting: read-out: HDL cholesterol, percent of control.
The mark [5] stands for this setting: read-out: LDL cholesterol, percent of control.
[6] abbreviates: read-out: TRIG (triglycerides), percent of control.
Setting [7] is: read-out: chol tot. (total cholesterol), percent of control.
Setting [8] is: rat serum, diet 0.3%, read-out: Serum Parent = parent compound concentration.
Where [9] appears, read: rat liver, diet 0.3%, read-out: Liver Parent = parent compound concentration.

Where two headings read alike, the source gives them in different places.

As to `CC(C)(C)c1cc(OC[Si](C)(C)c2ccccc2)ccc1O` [MDL 103,491, 2-t-Butyl-4-[(dimethylphenylsilyl)methyloxy]phenol], the response vs control in vivo at 0.4 % was found to be 103% in data set [1] (setting [4]), 81% in data set [1] (setting [5]), 134% in data set [1] (setting [6]) and 85% in data set [1] (setting [7]). Further, the response vs control in vivo at 0.6 % in data set [1] (setting [6]) worked out at 216%; in data set [1] (setting [7]), 139%. Besides, the response vs control in vivo at 0.1 % in data set [2] came out at 70%. In addition, the response vs control in vivo at 0.3 % in data set [2] came to 34%. For the same molecule, in data set [3] (setting [8]), the concentration at 96 h stood at 3000 ng/mL. Also, the “Liver Parent = parent compound concentration” value in data set [3] (rat liver, diet 0.1%) was 0 µg/g; in data set [3] (rat liver, diet 0.3%), 0 µg/g. Also, the “Serum Parent = parent compound concentration” value in data set [3] (rat serum, diet 0.1%) worked out at 0 µg/mL.

Turning to `CC(C)(C)c1cc(OC[Si](C)(C)c2ccccc2)c(C(C)(C)C)cc1O` [MDL 104,962, 2,5-Di-t-butyl-4-[(dimethylphenylsilyl)methyloxy]phenol], the response vs control in vivo at 0.4 % in data set [1] (setting [4]) came to 163%; in data set [1] (setting [5]), 105%; in data set [1] (setting [6]), 159%; in data set [1] (setting [7]), 118%. Also, in data set [2], the response vs control in vivo at 0.3 % stood at 25%. Besides, the concentration at 96 h came to 43500 ng/g in data set [3] (setting [9]) and 16400 ng/mL in data set [3] (setting [8]).

Regarding `CN(C)c1ccc([Si](C)(C)COc2cc(C(C)(C)C)c(O)c(C(C)(C)C)c2)cc1` [MDL 104,556, 2,6-Di-t-butyl-4-[(4-N,N-dimethylaminophenyldimethylsilyl)methyloxy]phenol], the response vs control in vivo at 0.4 % worked out at 116% in data set [1] (setting [4]), 53% in data set [1] (setting [5]), 81% in data set [1] (setting [6]) and 47% in data set [1] (setting [7]). In addition, the response vs control in vivo at 0.1 % in data set [2] was found to be 61%. The response vs control in vivo at 0.3 % in data set [2] amounted to 34%. Moreover, the concentration at 96 h in data set [3] (rat liver, diet 0.1%, read-out: Liver Parent = parent compound concentration) amounted to 38700 ng/g; in data set [3] (setting [9]), 60300 ng/g; in data set [3] (rat serum, diet 0.1%, read-out: Serum Parent = parent compound concentration), 9200 ng/mL; in data set [3] (setting [8]), 16300 ng/mL.
